The target in the test is T1, human D4 receptors (Homo sapiens, UniProt P21917).
T1 construct: expressed in transfected cells
T1 sequence (P21917 1-419): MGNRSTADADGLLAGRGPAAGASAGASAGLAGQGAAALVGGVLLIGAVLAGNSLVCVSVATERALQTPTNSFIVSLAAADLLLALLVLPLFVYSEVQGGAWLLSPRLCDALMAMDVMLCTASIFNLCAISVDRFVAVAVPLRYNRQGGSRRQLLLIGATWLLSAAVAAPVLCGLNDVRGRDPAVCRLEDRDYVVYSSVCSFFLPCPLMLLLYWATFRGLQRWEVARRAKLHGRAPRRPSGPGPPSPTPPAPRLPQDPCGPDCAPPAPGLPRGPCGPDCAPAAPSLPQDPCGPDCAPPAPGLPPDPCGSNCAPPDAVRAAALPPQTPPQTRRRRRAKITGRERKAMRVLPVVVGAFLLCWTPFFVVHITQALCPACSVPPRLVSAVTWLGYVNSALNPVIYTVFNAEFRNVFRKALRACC
Description: Functional antagonist assay: reversal of dopamine inhibition of forskolin-stimulated adenyl cyclase (cAMP). The note with it: dopamine and forskolin both 10 μM, read-out: % REVERSAL OF DOPAMINE EFFECT. Type of test: cell-based. The method, then:
The D4 receptor responds to dopamine and other agonists by reducing adenyl cyclase mediated production of cyclic AMP. Particular test compounds were assayed for their ability to reverse dopamine inhibition of adenyl cyclase by the following procedure. Forskolin was used to elevate the basal adenyl cyclase activity.
CHO Pro 5 cells stably expressing human D4 receptors were plated in 6 well plates in DMEM (Dulbecco's Modified Eagle Medium)/F12(Nutrient Mixture F12 (Ham)) media with 10% FCS (fetal calf serum) and G418 (Geneticen Disulfate), and incubated at 37° C. in a CO2 incubator. The cells were allowed to grow to about 70% confluence before use in the assay.
The culture media of each well was removed by aspiration, and the wells were washed once with serum free media (SFM) (DMEM/F12) media. Then 2 mL of fresh SFM+IBMX media (SFM with 0.5 mM IBMX (3-isobutyl-1-methylxanthine0.1% ascorbic acid and 10 μM pargyline) was added to each well and then incubated at 37° C. for 10 minutes in CO2 incubator. Following incubation, SFM+IBMX media was aspirated and fresh SFM+IBMX media was added to wells separately with one of a) forskolin (10 μM final conc.); b) dopamine and forskolin (both 10 μM final conc.); and c) test compound ([…]), and dopamine and forskolin (both 10 μM final conc.). Basal adenyl cyclase activity was determined from wells with only SFM+IBMX media added.
The cells were then incubated at 37° C. for 30 minutes in a CO2 incubator. Following incubation the media was aspirated from each well and then washed once with 2 mL of PBS (phosphate buffered saline). Each well was then treated with 1 mL cold 95% ethanol:5 mM EDTA (2:1) at 4° C. for 1 h. The cells from each well were then scraped and transferred into individual Eppendorf tubes. The tubes were centrifuged for 5 minutes at 4° C., and the supernatants were transferred to new Eppendorf tubes. The pellets were discarded and the supernatants dried using a SpeedVac. The extracts were then reconstituted in 600 μL of 0.1M sodium acetate buffer, pH 6.1, and stored at 4° C. until assayed for cAMP concentration. cAMP content measured in fmoles/well for each extract was determined by EIA (enzyme-immunoassay) using Amersham Biotrak cAMP EIA kit (Amersham RPN 225).
Total inhibition (IO) of forskolin-stimulated adenyl cyclase activity by dopamine was determined as the difference in concentration of cAMP in the forskolin-treated cells (Cf) and dopamine-forskolin treated cells (Cd).
Net inhibition (I) of forskolin-stimulated adenyl cyclase activity by dopamine in the presence of an antagonist was determined as the difference in concentration of cAMP in the forskolin-treated cells (Cf) and test compound, dopamine and forskolin treated cells (C).
The ability of a test compound to reverse the dopamine inhibition (% reversal, %R) was determined by the formula: […]

With `Clc1ccc2c(c1)C=C(N1CCN(Cc3ccc4c(c3)OCO4)CC1)c1ccccc1S2` [2-chloro-10-(4-piperonyl-1-piperazinyl)dibenzo[b,f]thiepine], the inhibition at 1 µM was determined as 47% and the inhibition at 10 µM is 40%.
In the case of `Clc1ccc2c(c1)Nc1ccccc1N=C2N1CCN(Cc2ccc3c(c2)OCO3)CC1` [3-chloro-11-(4-piperonyl-1-piperazinyl)-5H-dibenzo[b,e][1,4]diazepine], the inhibition at 1 µM is 19% and the inhibition at 10 µM came out at 50%.
As for `Clc1ccc2c(c1)N=C(N1CCN(Cc3ccc4c(c3)OCO4)CC1)c1ccccc1O2` [8-chloro-11-(4-piperonyl)-1-piperazinyl)dibenz[b,f][1,4]oxazepine], the inhibition at 1 µM amounted to 46% and the inhibition at 10 µM was found to be 68%.
For `c1ccc2c(c1)N=C(N1CCN(Cc3ccc4c(c3)OCO4)CC1)c1ccccc1O2` [11-(4-piperonyl)-1-piperazinyl)-dibenz[b,f][1,4]oxazepine], in that order: 40% and 50%.
